{"source": "paper PMC12728205", "about": "“The solute-binding proteins DppA1–5 of Pseudomonas aeruginosa have distinct substrate profiles” (Scientific Reports, 2025)", "target": "T1, DppA1 (Pseudomonas aeruginosa, UniProt A0A0H2ZGV2)", "T1 construct": "C-terminal TwinStrepTag, codon-optimized gene, periplasmic expression in E. coli BL21 (pET22b), StrepTrap purified", "T1 sequence (A0A0H2ZGV2 30-537)": "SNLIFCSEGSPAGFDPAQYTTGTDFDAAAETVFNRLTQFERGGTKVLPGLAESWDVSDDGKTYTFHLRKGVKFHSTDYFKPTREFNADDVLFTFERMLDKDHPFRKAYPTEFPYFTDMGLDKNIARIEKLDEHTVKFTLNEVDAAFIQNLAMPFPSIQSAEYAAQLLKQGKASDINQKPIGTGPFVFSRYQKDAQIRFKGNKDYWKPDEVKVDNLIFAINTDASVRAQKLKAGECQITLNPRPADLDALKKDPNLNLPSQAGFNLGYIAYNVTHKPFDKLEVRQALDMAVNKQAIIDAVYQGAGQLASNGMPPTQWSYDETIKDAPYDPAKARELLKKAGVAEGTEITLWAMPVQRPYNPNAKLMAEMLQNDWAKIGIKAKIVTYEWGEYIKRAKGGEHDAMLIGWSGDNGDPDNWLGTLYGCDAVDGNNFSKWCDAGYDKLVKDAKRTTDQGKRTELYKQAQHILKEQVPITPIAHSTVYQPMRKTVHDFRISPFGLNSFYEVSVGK", "assay": "differential scanning fluorimetry (SYPRO Orange)", "format": "binding", "conditions": "10 µM protein, 250 µM peptide, PBS", "note": "Peptide text beside a SMILES is read from it.", "data": [{"molecule": "C[C@H](N)C(=O)NCC(=O)O", "note": "[Ala-Gly] (H-Ala-Gly-OH)", "values": [{"measurement": "ΔTm", "result": 8.6, "unit": "°C"}]}]}
